# Source: patent publication US20210290644A1, “COMPOUNDS AND METHODS FOR TREATING FUNGAL INFECTIONS” (Amplyx Pharmaceuticals, Inc., priority 2018, published 2021)
# “And” between values parts separate entries of the source, which are not always exact repeats. Identical values can stand only once.
# Columns and labels:
# clinical [1] = settings: human, plasma, po
# Excerpt: (§1) In the single ascending dose (SAD) phase, subjects in Cohort 1a received a single IV dose in Period A and then rising single oral doses in Periods B to D. Subjects in Cohort 1b received a single oral dose under fed and fasted conditions in Periods E and F. Subjects in Cohorts 2 and 3 received once-daily oral doses for 14 days, as did subjects in Cohort 4 as part of an in vivo screen for drug-drug interaction (DDI) potential.
# (§2) For SAD Cohorts 1a and 1b, urine samples for the determination of Compound 1A were collected through 48 hrs after dosing.
# (§3) Forty-six (46) subjects were enrolled into the study, 8 in Cohort 1a, 10 in Cohort 1b, and 8 each in Cohorts 2 and 3.
# clinical [2] = settings: human, plasma, po, 400 mg
# Excerpt: Study #2 of Compound 1 was a Phase 1, double-blind, placebo-controlled, randomized study in healthy volunteers that consisted of a series of single and multiple dose treatments. In the single ascending dose (SAD) phase, subjects in Cohort 1a received a single IV dose in Period A and then rising single oral doses in Periods B to D. Subjects in Cohort 1b received a single oral dose under fed and fasted conditions in Periods E and F. Subjects in Cohorts 2 and 3 received once-daily oral doses for 14 days, as did subjects in Cohort 4 as part of an in vivo screen for drug-drug interaction (DDI) potential.
# Blood samples for the determination of Compound 1 and Compound 1A plasma concentrations were collected before and at appropriate times during all single and multiple dose administrations of Compound 1. For SAD Cohorts 1a and 1b, urine samples for the determination of Compound 1A were collected through 48 hrs after dosing.
# [3] = Study #2 Phase 1: pharmacokinetics after single IV and single/multiple oral doses of Compound 1, absolute oral bioavailability;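 also: phase 1 study design: one IV dose, then escalating single oral doses, fed versus fasted single oral dosing, and once-daily oral dosing over 14 days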
# Excerpt: as §1, §2, §3
# [4] = oral Compound 1 QD × 14 days, 3 cohorts
# [5] = single oral doses of Compound 1 100 mg to 500 mg, fasted
smiles,measurement,setting,value
Nc1ncccc1-c1cc(Cc2ccc(COc3ccccn3)cc2)no1 [Compound 1A],AUC(0-inf),clinical [1]; 100 mg,39.6 µg·h/mL
same,CL/F,clinical [1]; 100 mg,0.417 mL/min/kg
same,Cmax,clinical [1]; 100 mg,1300 ng/mL
same,Vd/F,clinical [1]; 100 mg,138 L and 1.78 L/kg
same,half-life,clinical [1]; 100 mg,49.5 h
same,AUC(0-inf),clinical [1]; 400 mg,177 µg·h/mL
same,CL/F,clinical [1]; 400 mg,0.418 mL/min/kg
same,Cmax,clinical [1]; 400 mg,4250 ng/mL
same,Vd/F,clinical [1]; 400 mg,161 L and 2.35 L/kg
same,half-life,clinical [1]; 400 mg,64.7 h
same,AUC(0-inf),clinical [2],177 µg·h/mL
same,CL/F,clinical [2],0.418 mL/min/kg
same,Cmax,clinical [2],4250 ng/mL
same,Vd/F,clinical [2],161 L and 2.35 L/kg
same,half-life,clinical [2],64.7 h
same,AUC(0-inf),"[3]; human, plasma, iv, 200 mg",87.5 µg·h/mL
same,Vd,"[3]; human, plasma, iv, 200 mg",124 L and 1.6 L/kg
same,clearance,"[3]; human, plasma, iv, 200 mg",29.1 mL/min and 0.377 mL/min/kg
same,AUC(0-t),"[3]; human, plasma, iv, 200 mg, AUC(0-24), 200 mg/3 hr IV Compound 1, fasted, geometric mean",24.4 µg·h/mL
same,AUC(0-t),"[3]; human, plasma, iv, 200 mg, AUC(0-t), 200 mg/3 hr IV Compound 1, fasted, geometric mean",86.3 µg·h/mL
same,Cmax,"[3]; human, plasma, iv, 200 mg, 200 mg/3 hr IV Compound 1, fasted, geometric mean",2640 ng/mL
same,Tmax,"[3]; human, plasma, iv, 200 mg, Tmax, 200 mg/3 hr IV Compound 1, fasted, median",3 h
same,half-life,"[3]; human, plasma, iv, 200 mg, geometric mean t1/2, IV treatment, 200 mg Compound 1 over 3 hrs",49.1 h
same,half-life,"[3]; human, plasma, iv, 200 mg, t½, 200 mg/3 hr IV Compound 1, fasted, geometric mean",49.1 h
same,bioavailability,"[3]; human, plasma, oral",90.6 to 101%
same,AUC(0-t),"[3]; human, plasma, oral, 500 mg, AUC(0-24), Day 1, Cohort 2, 500 mg Tablets QD × 14 Days, fed, geometric mean",50.7 µg·h/mL
same,AUC(0-t),"[3]; human, plasma, oral, 500 mg, AUC(0-24), Day 7, Cohort 2, 500 mg Tablets QD × 14 Days, fed, geometric mean",154 µg·h/mL
same,AUC(0-t),"[3]; human, plasma, oral, 500 mg, AUC(0-24), Day 14, Cohort 2, 500 mg Tablets QD × 14 Days, fed, geometric mean",191 µg·h/mL
same,CL/F,"[3]; human, plasma, oral, 500 mg, CL, Day 14, Cohort 2, 500 mg Tablets QD × 14 Days, fed, geometric mean",0.462 mL/min/kg
same,Cmax,"[3]; human, plasma, oral, 500 mg, Day 1, Cohort 2, 500 mg Tablets QD × 14 Days, fed, geometric mean",6180 ng/mL
same,Cmax,"[3]; human, plasma, oral, 500 mg, Day 7, Cohort 2, 500 mg Tablets QD × 14 Days, fed, geometric mean",10900 ng/mL
same,Cmax,"[3]; human, plasma, oral, 500 mg, Day 14, Cohort 2, 500 mg Tablets QD × 14 Days, fed, geometric mean",12000 ng/mL
same,Tmax,"[3]; human, plasma, oral, 500 mg, Tmax, Day 1, Cohort 2, 500 mg Tablets QD × 14 Days, fed, median",4 h
same,Tmax,"[3]; human, plasma, oral, 500 mg, Tmax, Day 7, Cohort 2, 500 mg Tablets QD × 14 Days, fed, median",3.76 h
same,Tmax,"[3]; human, plasma, oral, 500 mg, Tmax, Day 14, Cohort 2, 500 mg Tablets QD × 14 Days, fed, median",3.75 h
same,half-life,"[3]; human, plasma, oral, 500 mg, T½, Day 14, Cohort 2, 500 mg Tablets QD × 14 Days, fed, geometric mean",73.4 h
same,AUC(0-t),"[3]; human, plasma, oral, 1000 mg, AUC(0-24), Day 1, Cohort 3, 1000 mg Tablets QD × 14 Days, fed, geometric mean",119 µg·h/mL
same,AUC(0-t),"[3]; human, plasma, oral, 1000 mg, AUC(0-24), Day 7, Cohort 3, 1000 mg Tablets QD × 14 Days, fed, geometric mean",316 µg·h/mL
same,AUC(0-t),"[3]; human, plasma, oral, 1000 mg, AUC(0-24), Day 14, Cohort 3, 1000 mg Tablets QD × 14 Days, fed, geometric mean",326 µg·h/mL
same,CL/F,"[3]; human, plasma, oral, 1000 mg, CL, Day 14, Cohort 3, 1000 mg Tablets QD × 14 Days, fed, geometric mean",0.582 mL/min/kg
same,Cmax,"[3]; human, plasma, oral, 1000 mg, Day 1, Cohort 3, 1000 mg Tablets QD × 14 Days, fed, geometric mean",10600 ng/mL
same,Cmax,"[3]; human, plasma, oral, 1000 mg, Day 7, Cohort 3, 1000 mg Tablets QD × 14 Days, fed, geometric mean",21300 ng/mL
same,Cmax,"[3]; human, plasma, oral, 1000 mg, Day 14, Cohort 3, 1000 mg Tablets QD × 14 Days, fed, geometric mean",21300 ng/mL
same,Tmax,"[3]; human, plasma, oral, 1000 mg, Tmax, Day 1, Cohort 3, 1000 mg Tablets QD × 14 Days, fed, median",4.5 h
same,Tmax,"[3]; human, plasma, oral, 1000 mg, Tmax, Day 7, Cohort 3, 1000 mg Tablets QD × 14 Days, fed, median",4 h
same,Tmax,"[3]; human, plasma, oral, 1000 mg, Tmax, Day 14, Cohort 3, 1000 mg Tablets QD × 14 Days, fed, median",3.77 h
same,half-life,"[3]; human, plasma, oral, 1000 mg, T½, Day 14, Cohort 3, 1000 mg Tablets QD × 14 Days, fed, geometric mean",52.6 h
same,bioavailability,"[3]; human, plasma, po, 100 mg",90.6%
same,Tmax,"[3]; human, plasma, po, 100 mg, Tmax, 100 mg Oral Compound 1, fasted, median",2 h
same,AUC(0-inf),"[3]; human, plasma, po, 300 mg",122 µg·h/mL
same,Vd/F,"[3]; human, plasma, po, 300 mg",142 L and 1.84 L/kg
same,bioavailability,"[3]; human, plasma, po, 300 mg",93.1%
same,AUC(0-t),"[3]; human, plasma, po, 300 mg, AUC(0-24), 300 mg Oral Compound 1, fasted, geometric mean",35.6 µg·h/mL
same,AUC(0-t),"[3]; human, plasma, po, 300 mg, AUC(0-t), 300 mg Oral Compound 1, fasted, geometric mean",118 µg·h/mL
same,CL/F,"[3]; human, plasma, po, 300 mg, CL/F, 300 mg Oral Compound 1, fasted, geometric mean",0.405 mL/min/kg
same,Cmax,"[3]; human, plasma, po, 300 mg, 300 mg Oral Compound 1, fasted, geometric mean",3750 ng/mL
same,Tmax,"[3]; human, plasma, po, 300 mg, Tmax, 300 mg Oral Compound 1, fasted, median",2.5 h
same,half-life,"[3]; human, plasma, po, 300 mg, t½, 300 mg Oral Compound 1, fasted, geometric mean",52.5 h
same,bioavailability,"[3]; human, plasma, po, 400 mg",101%
same,Tmax,"[3]; human, plasma, po, 400 mg, Tmax, 400 mg Oral Compound 1, fasted, median",2.5 h
same,AUC(0-inf),"[3]; human, plasma, po, 500 mg",205 µg·h/mL
same,Vd/F,"[3]; human, plasma, po, 500 mg",121 L and 1.62 L/kg
same,bioavailability,"[3]; human, plasma, po, 500 mg",93.5%
same,AUC(0-t),"[3]; human, plasma, po, 500 mg, AUC(0-24), 500 mg Oral Compound 1, fasted, geometric mean",59 µg·h/mL
same,AUC(0-t),"[3]; human, plasma, po, 500 mg, AUC(0-24), Day 1, Cohort 4, 500 mg Oral Solution QD × 14 Days, fed, geometric mean",56.7 µg·h/mL
same,AUC(0-t),"[3]; human, plasma, po, 500 mg, AUC(0-24), Day 7, Cohort 4, 500 mg Oral Solution QD × 14 Days, fed, geometric mean",140 µg·h/mL
same,AUC(0-t),"[3]; human, plasma, po, 500 mg, AUC(0-24), Day 14, Cohort 4, 500 mg Oral Solution QD × 14 Days, fed, geometric mean",153 µg·h/mL
same,AUC(0-t),"[3]; human, plasma, po, 500 mg, AUC(0-t), 500 mg Oral Compound 1, fasted, geometric mean",197 µg·h/mL
same,CL/F,"[3]; human, plasma, po, 500 mg, CL, Day 14, Cohort 4, 500 mg Oral Solution QD × 14 Days, fed, geometric mean",0.555 mL/min/kg
same,CL/F,"[3]; human, plasma, po, 500 mg, CL/F, 500 mg Oral Compound 1, fasted, geometric mean",0.418 mL/min/kg
same,Cmax,"[3]; human, plasma, po, 500 mg, 500 mg Oral Compound 1, fasted, geometric mean",6410 ng/mL
same,Cmax,"[3]; human, plasma, po, 500 mg, Day 1, Cohort 4, 500 mg Oral Solution QD × 14 Days, fed, geometric mean",5850 ng/mL
same,Cmax,"[3]; human, plasma, po, 500 mg, Day 7, Cohort 4, 500 mg Oral Solution QD × 14 Days, fed, geometric mean",10400 ng/mL
same,Cmax,"[3]; human, plasma, po, 500 mg, Day 14, Cohort 4, 500 mg Oral Solution QD × 14 Days, fed, geometric mean",12300 ng/mL
same,Tmax,"[3]; human, plasma, po, 500 mg, Tmax, 500 mg Oral Compound 1, fasted, median",3 h
same,Tmax,"[3]; human, plasma, po, 500 mg, Tmax, Day 1, Cohort 4, 500 mg Oral Solution QD × 14 Days, fed, median",2 h
same,Tmax,"[3]; human, plasma, po, 500 mg, Tmax, Day 7, Cohort 4, 500 mg Oral Solution QD × 14 Days, fed, median",2 h
same,Tmax,"[3]; human, plasma, po, 500 mg, Tmax, Day 14, Cohort 4, 500 mg Oral Solution QD × 14 Days, fed, median",1 h
same,half-life,"[3]; human, plasma, po, 500 mg, T½, Day 14, Cohort 4, 500 mg Oral Solution QD × 14 Days, fed, geometric mean",55.4 h
same,half-life,"[3]; human, plasma, po, 500 mg, t½, 500 mg Oral Compound 1, fasted, geometric mean",44.9 h
same,half-life,"[3]; human, plasma, po, geometric mean t1/2, range across treatments, 4 oral treatments of Compound 1",44.9 to 64.7 h
same,Tmax,"[3]; human, plasma, po, median tmax, range across doses and study days, oral Compound 1 500 mg and 1000 mg QD × 14 days, fed",2 to 3 h
same,Tmax,"[3]; human, plasma, po, median tmax, range across doses, 4 single oral doses of Compound 1",2 to 3 h
same,"median accumulation, ratio of AUC0-24 on Day 14 to Day 1",[3]; [4],2.95
same,"median accumulation, ratio of Cmax on Day 14 to Day 1",[3]; [4],1.99
same,increase in geometric mean Cmax and AUC0-24 from 500 mg to 1000 mg,"[3]; oral QD × 14 days, Days 1, 7, and 14",~2 fold
same,slope of log-log AUC(inf) vs. dose (power model parameter b),[3]; [5],1.04±0.046
same,slope of log-log Cmax vs. dose (power model parameter b),[3]; [5],0.935±0.077
